What all share (assay type): functional
The test system of assay [1] is Escherichia coli. Description: Antibacterial activity against Escherichia coli ATCC 25922 after 24 hrs by micro broth dilution method. Particulars: ATCC 25922, 24 h. On the technique in general: Dilution methods test growth across graded concentrations, often in twofold steps.
Assay [2] concerns Aspergillus fumigatus. Description: Antifungal activity against Aspergillus fumigatus after 24 hrs by two-fold broth microdilution assay.
In the next assay the test system is Enterococcus faecalis. Description: Antibacterial activity against Enterococcus faecalis after 24 hrs by micro broth dilution method.
A further assay concerns Acinetobacter baumannii. Briefly: Antibacterial activity against Acinetobacter baumannii after 24 hrs by micro broth dilution method.
In assay [3] the test system is Candida parapsilosis. Briefly: Antifungal activity against Candida parapsilosis ATCC 22019 after 24 hrs by two-fold broth microdilution assay. To be noted: Lodderomyces parapsilosis, ATCC 22019, 24 h.
Assay [4] relates to Candida tropicalis. Briefly: Antifungal activity against Candida tropicalis after 24 hrs by two-fold broth microdilution assay.
Assay [5] has as its system Staphylococcus aureus. Briefly: Antibacterial activity against Staphylococcus aureus ATCC 25923 after 24 hrs by micro broth dilution method. To be noted: ATCC 25923, 24 h.
Assay [6] deals with Candida albicans. Description: Antifungal activity against Candida albicans after 24 hrs by two-fold broth microdilution assay.
Assay [7] has as its system Pseudomonas aeruginosa. Description: Antibacterial activity against Pseudomonas aeruginosa ATCC 27853 after 24 hrs by micro broth dilution method. To be noted: ATCC 27853, 24 h.
Assay [8] relates to Candida albicans. Description: Antifungal activity against Candida albicans ATCC 90023 after 24 hrs by two-fold broth microdilution assay. Particulars: ATCC 90023, 24 h.
The subject of another assay is Klebsiella pneumoniae. Briefly: Antibacterial activity against Klebsiella pneumoniae after 24 hrs by micro broth dilution method.
Assay [9] deals with Staphylococcus aureus. Briefly: Antibacterial activity against Staphylococcus aureus after 24 hrs by micro broth dilution method.
For assay [10], the system named is Staphylococcus aureus. Briefly: Antibacterial activity against Staphylococcus aureus ATCC 29213 after 24 hrs by micro broth dilution method. To be noted: ATCC 29213, 24 h.
In assay [11] the test system is Pseudomonas aeruginosa. Briefly: Antibacterial activity against Pseudomonas aeruginosa after 24 hrs by micro broth dilution method.
The subject of assay [12] is Staphylococcus aureus. Briefly: Antibacterial activity against methicillin-resistant Staphylococcus aureus after 24 hrs by micro broth dilution method.
Assay [13] deals with Escherichia coli. Briefly: Antibacterial activity against Escherichia coli after 24 hrs by micro broth dilution method.
Assay [14] concerns Candida parapsilosis. Description: Fungicidal activity against Candida parapsilosis ATCC 22019 incubated for 24 hrs followed by plating onto tryptic soy agar medium and measured after 24 hrs by broth microdilution method. Particulars: Lodderomyces parapsilosis, ATCC 22019, 24 h.
In assay [15] the test system is Candida tropicalis. Description: Synergistic antifungal activity against Candida tropicalis after 18 hrs in presence of fluconazole by checkerboard assay.
For assay [16], the system named is Aspergillus fumigatus. Briefly: Synergistic antifungal activity against Aspergillus fumigatus after 18 hrs in presence of fluconazole by checkerboard assay.
The subject of assay [17] is Candida albicans. Description: Ratio of MFC to MIC for Candida albicans.
Assay [18] has as its system Candida tropicalis. Briefly: Ratio of MFC to MIC for Candida tropicalis.
The test system of assay [19] is Candida tropicalis. Description: Fungicidal activity against Candida tropicalis incubated for 24 hrs followed by plating onto tryptic soy agar medium and measured after 24 hrs by broth microdilution method.
The test system of assay [20] is Candida tropicalis. Briefly: Synergistic antifungal activity against Candida tropicalis assessed as FIC index after 18 hrs in presence of fluconazole by checkerboard assay.
Assay [21] concerns Candida albicans. Description: Synergistic antifungal activity against Candida albicans assessed as FIC index after 18 hrs in presence of fluconazole by checkerboard assay.
Assay [22] has as its system Candida albicans. Description: Fungicidal activity against Candida albicans incubated for 24 hrs followed by plating onto tryptic soy agar medium and measured after 24 hrs by broth microdilution method.
For assay [23], the system named is Candida parapsilosis. Description: Ratio of MFC to MIC for Candida parapsilosis ATCC 22019.
Assay [24] concerns Aspergillus fumigatus. Briefly: Synergistic antifungal activity against Aspergillus fumigatus assessed as FIC index after 18 hrs in presence of fluconazole by checkerboard assay.
The subject of assay [25] is Candida albicans. Description: Synergistic antifungal activity against Candida albicans after 18 hrs in presence of fluconazole by checkerboard assay.

Each structure is given as a SMILES string. Converted amounts (≈) assume the structure as drawn.

This note sets out measurements from ChEMBL document CHEMBL4270534, “Novel carbazole-triazole conjugates as DNA-targeting membrane active potentiators against clinical isolated fungi” (Eur J Med Chem, 2018).

One may read the MIC as the smallest concentration in the dilution series that meets the test's criterion for growth inhibition. In the case of `Cc1ccc(C(O)(Cn2cncn2)Cn2c3ccc(Br)cc3c3cc(Br)ccc32)cc1` (stereo not drawn), the MIC with Escherichia coli [1] amounted to 16 µg/mL (≈ 29.6 µM); against Aspergillus fumigatus [2] it was 64 µg/mL (≈ 118 µM); with Enterococcus faecalis it was 64 µg/mL (≈ 118 µM); in the assay on Acinetobacter baumannii it was 256 µg/mL (≈ 474 µM); against Candida parapsilosis [3] it was 32 µg/mL (≈ 59.2 µM); against Candida tropicalis [4], 32 µg/mL (≈ 59.2 µM). The minimum inhibitory concentration (MIC) against Staphylococcus aureus [5] was 128 µg/mL (≈ 237 µM); with Candida albicans [6], 64 µg/mL (≈ 118 µM); against Pseudomonas aeruginosa [7], 64 µg/mL (≈ 118 µM); against Candida albicans [8], 128 µg/mL (≈ 237 µM); against Klebsiella pneumoniae, 256 µg/mL (≈ 474 µM); in the assay on Staphylococcus aureus [9], 256 µg/mL (≈ 474 µM). Moreover, the MIC against Staphylococcus aureus [10] is 256 µg/mL (≈ 474 µM); with Pseudomonas aeruginosa [11], 256 µg/mL (≈ 474 µM); with Staphylococcus aureus [12], 128 µg/mL (≈ 237 µM); with Escherichia coli [13] it was 256 µg/mL (≈ 474 µM).

For `OC(Cn1cncn1)(Cn1c2ccc(Br)cc2c2cc(Br)ccc21)c1ccc(Cl)cc1` (stereo not drawn), the minimal inhibitory concentration (MIC) was found to be 16 µg/mL (≈ 28.5 µM) against Escherichia coli [1]; 64 µg/mL (≈ 114 µM) against Aspergillus fumigatus [2]; 16 µg/mL (≈ 28.5 µM) in the assay with Enterococcus faecalis; 256 µg/mL (≈ 457 µM) against Acinetobacter baumannii; 32 µg/mL (≈ 57.1 µM) against Candida parapsilosis [3]; 32 µg/mL (≈ 57.1 µM) with Candida tropicalis [4]. Also, the MIC in the assay with Staphylococcus aureus [5] was 32 µg/mL (≈ 57.1 µM); in the assay with Candida albicans [6], 8 µg/mL (≈ 14.3 µM); against Pseudomonas aeruginosa [7], 16 µg/mL (≈ 28.5 µM); with Candida albicans [8], 64 µg/mL (≈ 114 µM); against Klebsiella pneumoniae it was 256 µg/mL (≈ 457 µM); against Staphylococcus aureus [9], 32 µg/mL (≈ 57.1 µM). The MIC against Staphylococcus aureus [10] was determined as 16 µg/mL (≈ 28.5 µM); with Pseudomonas aeruginosa [11] it was 256 µg/mL (≈ 457 µM); in the assay with Staphylococcus aureus [12], 16 µg/mL (≈ 28.5 µM); with Escherichia coli [13], 128 µg/mL (≈ 228 µM).

Broadly, the MFC is the lowest tested concentration that kills the fungus rather than only halting it. Read a high MFC as less potent killing. On to `OC(Cn1cncn1)(Cn1c2ccccc2c2cc(Br)ccc21)c1ccc(F)cc1F` (stereo not drawn), for which the minimal inhibitory concentration (MIC) in the assay with Escherichia coli [1] amounted to 32 µg/mL (≈ 66.2 µM); in the assay with Candida tropicalis [15], 4 µg/mL; in the assay with Aspergillus fumigatus [2] it was 64 µg/mL (≈ 132 µM); against Enterococcus faecalis, 32 µg/mL (≈ 66.2 µM); with Aspergillus fumigatus [16], 16 µg/mL; in the assay on Acinetobacter baumannii, 64 µg/mL (≈ 132 µM). The MIC against Candida parapsilosis [3] was 8 µg/mL (≈ 16.6 µM); against Candida tropicalis [4], 4 µg/mL (≈ 8.28 µM); against Staphylococcus aureus [5], 16 µg/mL (≈ 33.1 µM); against Candida albicans [6] it was 8 µg/mL (≈ 16.6 µM); in the assay on Pseudomonas aeruginosa [7], 128 µg/mL (≈ 265 µM); in the assay on Candida albicans [8], 32 µg/mL (≈ 66.2 µM). For the same compound, the MIC with Klebsiella pneumoniae is 128 µg/mL (≈ 265 µM); against Staphylococcus aureus [9], 32 µg/mL (≈ 66.2 µM); in the assay on Staphylococcus aureus [10] it was 16 µg/mL (≈ 33.1 µM); against Pseudomonas aeruginosa [11], 64 µg/mL (≈ 132 µM); in the assay with Staphylococcus aureus [12] it was 16 µg/mL (≈ 33.1 µM); against Escherichia coli [13], 32 µg/mL (≈ 66.2 µM). Further, the minimum inhibitory concentration (MIC) in the assay on Candida albicans [25] worked out at 2 µg/mL. The minimum fungicidal concentration (MFC) with Candida parapsilosis [14] was 8 µg/mL (≈ 16.6 µM); against Candida tropicalis [19], 32 µg/mL (≈ 66.2 µM); in the assay with Candida albicans [22], 16 µg/mL (≈ 33.1 µM). Also, the Ratio with Candida albicans [17] is listed as 2; in the assay on Candida tropicalis [18], 8; with Candida parapsilosis [23] it was 1. Moreover, the “fractional inhibitory concentration index (FICI)” value in the assay on Candida tropicalis [20] stood at 1.5; in the assay with Candida albicans [21], 0.75; with Aspergillus fumigatus [24] it was 0.32.

In the case of `OC(Cn1cncn1)(Cn1ccc2ccccc21)c1ccc(F)cc1F` (stereo not drawn), the minimal inhibitory concentration (MIC) against Escherichia coli [1] is 32 µg/mL (≈ 90.3 µM); in the assay with Aspergillus fumigatus [2], 32 µg/mL (≈ 90.3 µM); with Enterococcus faecalis it was 64 µg/mL (≈ 181 µM); against Acinetobacter baumannii it was 128 µg/mL (≈ 361 µM); in the assay with Candida parapsilosis [3], 64 µg/mL (≈ 181 µM); against Candida tropicalis [4], 64 µg/mL (≈ 181 µM). The MIC was found to be 32 µg/mL (≈ 90.3 µM) in the assay on Staphylococcus aureus [5]; 32 µg/mL (≈ 90.3 µM) against Candida albicans [6]; 128 µg/mL (≈ 361 µM) in the assay with Pseudomonas aeruginosa [7]; 128 µg/mL (≈ 361 µM) with Candida albicans [8]; 128 µg/mL (≈ 361 µM) against Klebsiella pneumoniae; 128 µg/mL (≈ 361 µM) against Staphylococcus aureus [9]. For the same compound, the MIC against Staphylococcus aureus [10] was determined as 64 µg/mL (≈ 181 µM); against Pseudomonas aeruginosa [11], 64 µg/mL (≈ 181 µM); with Staphylococcus aureus [12] it was 32 µg/mL (≈ 90.3 µM); with Escherichia coli [13] it was 64 µg/mL (≈ 181 µM).

In the case of `OC(Cn1cncn1)(Cn1c2ccc(Br)cc2c2cc(Br)ccc21)c1ccc(F)cc1` (stereo not drawn), the MIC stood at 16 µg/mL (≈ 29.4 µM) against Escherichia coli [1]; 128 µg/mL (≈ 235 µM) in the assay with Aspergillus fumigatus [2]; 64 µg/mL (≈ 118 µM) in the assay with Enterococcus faecalis; 256 µg/mL (≈ 470 µM) in the assay on Acinetobacter baumannii; 8 µg/mL (≈ 14.7 µM) in the assay on Candida parapsilosis [3]; 16 µg/mL (≈ 29.4 µM) against Candida tropicalis [4]. The minimum inhibitory concentration (MIC) amounted to 32 µg/mL (≈ 58.8 µM) in the assay on Staphylococcus aureus [5]; 8 µg/mL (≈ 14.7 µM) in the assay on Candida albicans [6]; 64 µg/mL (≈ 118 µM) with Pseudomonas aeruginosa [7]; 64 µg/mL (≈ 118 µM) with Candida albicans [8]; 256 µg/mL (≈ 470 µM) in the assay on Klebsiella pneumoniae; 64 µg/mL (≈ 118 µM) against Staphylococcus aureus [9]. The minimum inhibitory concentration (MIC) came out at 16 µg/mL (≈ 29.4 µM) against Staphylococcus aureus [10], 128 µg/mL (≈ 235 µM) in the assay with Pseudomonas aeruginosa [11], 64 µg/mL (≈ 118 µM) against Staphylococcus aureus [12] and 64 µg/mL (≈ 118 µM) against Escherichia coli [13]. For the same compound, the minimum fungicidal concentration (MFC) was 16 µg/mL (≈ 29.4 µM) with Candida parapsilosis [14], 32 µg/mL (≈ 58.8 µM) in the assay with Candida tropicalis [19] and 32 µg/mL (≈ 58.8 µM) with Candida albicans [22]. Besides, the Ratio was found to be 4 in the assay with Candida albicans [17], 2 in the assay with Candida tropicalis [18] and 2 in the assay on Candida parapsilosis [23].
